# Measured values as given in publication PMC9814900 (Communications Chemistry, 2022).
# Numbered stars: 1 amine (or outer) side, 2 acyl side, 3 side chain; on linkers, the order of the positions; unused ones are H or OH. Bridge positions count the residues as written; N and C are the ends. Peptide text beside a SMILES is read from it. C6F4(1,4-diyl) = Fc1c(F)c([*:2])c(F)c(F)c1[*:1]
# Molecular target: T1, SUMO-25-109MDM2 (Homo sapiens, UniProt Q00987)
# T1 construct: the ^25-109MDM2 gene was purchased from Addgene; made in house; host or cells: E. coli Rosetta (DE3) pLysS
# Experiment: In-solution competition assay by biolayer interferometry (BLI)
# Format: binding
# Details: not given
row,Molecule,Kd
1,"CC(C)C[C@H](NC(=O)[C@@H]1CSc2c(F)c(F)c(c(F)c2F)SC[C@H](NC(=O)[C@H](C)NC(=O)[C@H](Cc2ccccc2)NC(=O)[C@H](CO)NC(=O)[C@@H](N)[C@@H](C)O)C(=O)N[C@@H](Cc2ccc(O)cc2)C(=O)N[C@@H](Cc2c[nH]c3ccccc23)C(=O)N[C@@H](CC(N)=O)C(=O)N1)C(=O)N[C@@H](CO)C(=O)N1CCC[C@H]1C(N)=O [Peptide 13] (H-TSFACYWNCLSP-NH2; linker 5-9 via C6F4(1,4-diyl))",36 ± 8.5 nM
2,CC(C)C[C@H](NC(=O)[C@H](C)NC(=O)[C@H](Cc1c[nH]c2ccccc12)NC(=O)[C@H](Cc1ccc(O)cc1)NC(=O)[C@H](CCC(=O)O)NC(=O)[C@H](C)NC(=O)[C@H](Cc1ccccc1)NC(=O)[C@H](CO)NC(=O)[C@@H](N)[C@@H](C)O)C(=O)N[C@@H](CC(C)C)C(=O)N[C@@H](CO)C(=O)N[C@@H](C)C(N)=O [Peptide 8] (H-TSFAEYWALLSA-NH2),0.7 ± 0.5 nM

# Same assay, conditions: Figs 3-5; peptide pre-incubated 30 min with ~50 or ~100 nM SUMO-25-109MDM2 in PBS, 0.05% Tween-20, 1 mg/mL BSA; sensor loaded with Biotin-PEG4-p53(15-29); 30 °C; response after 2 min; read-out: KD, competition assay using BLI
row,Molecule,Kd
1,"CC(C)C[C@H](NC(=O)[C@H](CC(N)=O)NC(=O)[C@H](Cc1c[nH]c2ccccc12)NC(=O)[C@@H]1CSc2c(F)c(F)c(c(F)c2F)SC[C@H](NC(=O)[C@@H](N)[C@@H](C)O)C(=O)N[C@@H](Cc2ccccc2)C(=O)N[C@@H](C)C(=O)N[C@@H](CCC(=O)O)C(=O)N1)C(=O)N[C@@H](CC(C)C)C(=O)N[C@@H](CO)C(=O)N1CCC[C@H]1C(N)=O [Peptide 10] (H-TCFAECWNLLSP-NH2; linker 2-6 via C6F4(1,4-diyl))",449 ± 57 nM
2,"CC(C)C[C@@H]1NC(=O)[C@H](C)NC(=O)[C@@H](NC(=O)[C@H](Cc2c[nH]c3ccccc23)NC(=O)[C@H](Cc2ccc(O)cc2)NC(=O)[C@H](CCC(=O)O)NC(=O)[C@H](C)NC(=O)[C@H](Cc2ccccc2)NC(=O)[C@H](CO)NC(=O)[C@@H](N)[C@@H](C)O)CSc2c(F)c(F)c(c(F)c2F)SC[C@@H](C(N)=O)NC(=O)[C@H](CO)NC1=O [Peptide 40] (H-TSFAEYWCALSC-NH2; linker 8-12 via C6F4(1,4-diyl))",0.7 ± 0.5 nM
3,"CC(C)C[C@H](NC(=O)[C@H](CC(N)=O)NC(=O)[C@@H]1CSc2c(F)c(F)c(c(F)c2F)SC[C@H](NC(=O)[C@H](CO)NC(=O)[C@@H](N)[C@@H](C)O)C(=O)N[C@@H](C)C(=O)N[C@@H](CCC(=O)O)C(=O)N[C@@H](Cc2ccc(O)cc2)C(=O)N1)C(=O)N[C@@H](CC(C)C)C(=O)N[C@@H](CO)C(=O)N1CCC[C@H]1C(N)=O [Peptide 11] (H-TSCAEYCNLLSP-NH2; linker 3-7 via C6F4(1,4-diyl))",1620 ± 263 nM
4,CC(C)C[C@H](NC(=O)[C@H](CC(N)=O)NC(=O)[C@H](Cc1c[nH]c2ccccc12)NC(=O)[C@H](C)NC(=O)[C@H](CCC(=O)O)NC(=O)[C@H](C)NC(=O)[C@H](Cc1ccccc1)NC(=O)[C@H](CO)NC(=O)[C@@H](N)[C@@H](C)O)C(=O)N[C@@H](C)C(=O)N[C@@H](CO)C(=O)N1CCC[C@H]1C(N)=O [Peptide 6] (H-TSFAEAWNLASP-NH2),1440 ± 390 nM

# Same assay, conditions: supplementary binding validation; N=1; ~250 nM SUMO-25-109MDM2; read-out: KD, competition BLI assay
row,Molecule,Kd
1,"CC(C)C[C@H](NC(=O)[C@H](CC(N)=O)NC(=O)[C@H](Cc1c[nH]c2ccccc12)NC(=O)[C@H](Cc1ccc(O)cc1)NC(=O)[C@@H]1CSc2c(F)c(F)c(c(F)c2F)SC[C@H](N)C(=O)N[C@@H](CO)C(=O)N[C@@H](Cc2ccccc2)C(=O)N[C@@H](C)C(=O)N1)C(=O)N[C@@H](CC(C)C)C(=O)N[C@@H](CO)C(=O)N1CCC[C@H]1C(N)=O [Peptide 9] (H-CSFACYWNLLSP-NH2; linker 1-5 via C6F4(1,4-diyl))",925 ± 70 nM

# Same assay, conditions: supplementary binding validation; averaged over three measurements; ~30-100 nM SUMO-25-109MDM2 as given per peptide; read-out: Averaged KD, competition BLI assay
row,Molecule,Kd
1,"CC(C)C[C@H](NC(=O)[C@H](CC(N)=O)NC(=O)[C@H](Cc1c[nH]c2ccccc12)NC(=O)[C@@H]1CSc2c(F)c(F)c(c(F)c2F)SC[C@H](NC(=O)[C@@H](N)[C@@H](C)O)C(=O)N[C@@H](Cc2ccccc2)C(=O)N[C@@H](C)C(=O)N[C@@H](CCC(=O)O)C(=O)N1)C(=O)N[C@@H](CC(C)C)C(=O)N[C@@H](CO)C(=O)N1CCC[C@H]1C(N)=O [Peptide 10] (H-TCFAECWNLLSP-NH2; linker 2-6 via C6F4(1,4-diyl))",431 ± 46 nM
2,CC(C)C[C@H](NC(=O)[C@H](CC(N)=O)NC(=O)[C@H](Cc1c[nH]c2ccccc12)NC(=O)[C@H](C)NC(=O)[C@H](CCC(=O)O)NC(=O)[C@H](C)NC(=O)[C@H](Cc1ccccc1)NC(=O)[C@H](C)NC(=O)[C@@H](N)[C@@H](C)O)C(=O)N[C@@H](CC(C)C)C(=O)N[C@@H](CO)C(=O)N1CCC[C@H]1C(N)=O [Peptide 2] (H-TAFAEAWNLLSP-NH2),628 ± 89 nM
3,"CC(C)C[C@@H]1NC(=O)[C@H](CC(C)C)NC(=O)[C@@H](NC(=O)[C@H](Cc2c[nH]c3ccccc23)NC(=O)[C@H](Cc2ccc(O)cc2)NC(=O)[C@H](CCC(=O)O)NC(=O)[C@H](C)NC(=O)[C@H](Cc2ccccc2)NC(=O)[C@H](CO)NC(=O)[C@@H](N)[C@@H](C)O)CSc2c(F)c(F)c(c(F)c2F)SC[C@@H](C(N)=O)NC(=O)[C@H](CO)NC1=O [Peptide 16] (H-TSFAEYWCLLSC-NH2; linker 8-12 via C6F4(1,4-diyl))",3 ± 1.3 nM
4,"CC(C)C[C@H](NC(=O)[C@@H]1CSc2c(F)c(F)c(c(F)c2F)SC[C@H](NC(=O)[C@H](Cc2ccccc2)NC(=O)[C@H](CO)NC(=O)[C@@H](N)[C@@H](C)O)C(=O)N[C@@H](CCC(=O)O)C(=O)N[C@@H](Cc2ccc(O)cc2)C(=O)N[C@@H](Cc2c[nH]c3ccccc23)C(=O)N1)C(=O)N[C@@H](CC(C)C)C(=O)N[C@@H](CO)C(=O)N1CCC[C@H]1C(N)=O [Peptide 12] (H-TSFCEYWCLLSP-NH2; linker 4-8 via C6F4(1,4-diyl))",26 ± 5 nM
5,CC(C)C[C@H](NC(=O)[C@H](CC(N)=O)NC(=O)[C@H](Cc1c[nH]c2ccccc12)NC(=O)[C@H](Cc1ccc(O)cc1)NC(=O)[C@H](C)NC(=O)[C@H](C)NC(=O)[C@H](Cc1ccccc1)NC(=O)[C@H](CO)NC(=O)[C@H](C)N)C(=O)N[C@@H](CC(C)C)C(=O)N[C@@H](CO)C(=O)N1CCC[C@H]1C(N)=O [Peptide 1] (H-ASFAAYWNLLSP-NH2),10 ± 2.3 nM
6,"CC(C)C[C@@H]1NC(=O)[C@H](CC(N)=O)NC(=O)[C@@H](NC(=O)[C@H](Cc2ccc(O)cc2)NC(=O)[C@H](CCC(=O)O)NC(=O)[C@H](C)NC(=O)[C@H](Cc2ccccc2)NC(=O)[C@H](CO)NC(=O)[C@@H](N)[C@@H](C)O)CSc2c(F)c(F)c(c(F)c2F)SC[C@@H](C(=O)N2CCC[C@H]2C(N)=O)NC(=O)[C@H](CC(C)C)NC1=O [Peptide 15] (H-TSFAEYCNLLCP-NH2; linker 7-11 via C6F4(1,4-diyl))",1150 ± 209 nM
7,"CC(C)C[C@@H]1NC(=O)[C@H](C)NC(=O)[C@@H](NC(=O)[C@H](Cc2c[nH]c3ccccc23)NC(=O)[C@H](Cc2ccc(O)cc2)NC(=O)[C@H](CCC(=O)O)NC(=O)[C@H](C)NC(=O)[C@H](Cc2ccccc2)NC(=O)[C@H](CO)NC(=O)[C@@H](N)[C@@H](C)O)CSc2c(F)c(F)c(c(F)c2F)SC[C@@H](C(N)=O)NC(=O)[C@H](CO)NC1=O [Peptide 40] (H-TSFAEYWCALSC-NH2; linker 8-12 via C6F4(1,4-diyl))",0.2 ± 0.1 nM
8,CC(C)C[C@H](NC(=O)[C@H](C)NC(=O)[C@H](CC(N)=O)NC(=O)[C@H](Cc1c[nH]c2ccccc12)NC(=O)[C@H](Cc1ccc(O)cc1)NC(=O)[C@H](C)NC(=O)[C@H](C)NC(=O)[C@H](Cc1ccccc1)NC(=O)[C@H](CO)NC(=O)[C@@H](N)[C@@H](C)O)C(=O)N[C@@H](CO)C(=O)N1CCC[C@H]1C(N)=O [Peptide 5] (H-TSFAAYWNALSP-NH2),30 ± 3.8 nM
9,"CC(C)C[C@H](NC(=O)[C@H](C)NC(=O)[C@@H]1CSc2c(F)c(F)c(c(F)c2F)SC[C@H](NC(=O)[C@H](Cc2ccccc2)NC(=O)[C@H](C)NC(=O)[C@H](C)N)C(=O)N[C@@H](CCC(=O)O)C(=O)N[C@@H](Cc2ccc(O)cc2)C(=O)N[C@@H](Cc2c[nH]c3ccccc23)C(=O)N1)C(=O)N[C@@H](CO)C(=O)N1CCC[C@H]1C(N)=O [Peptide 35] (H-AAFCEYWCALSP-NH2; linker 4-8 via C6F4(1,4-diyl))",316 ± 27 nM
10,"CC(C)C[C@@H]1NC(=O)[C@H](CC(N)=O)NC(=O)[C@H](Cc2c[nH]c3ccccc23)NC(=O)[C@@H](NC(=O)[C@H](CCC(=O)O)NC(=O)[C@H](C)NC(=O)[C@H](Cc2ccccc2)NC(=O)[C@H](CO)NC(=O)[C@@H](N)[C@@H](C)O)CSc2c(F)c(F)c(c(F)c2F)SC[C@@H](C(=O)N[C@@H](CO)C(=O)N2CCC[C@H]2C(N)=O)NC1=O [Peptide 14] (H-TSFAECWNLCSP-NH2; linker 6-10 via C6F4(1,4-diyl))",2020 ± 514 nM
11,"CC(C)C[C@H](NC(=O)[C@H](CC(N)=O)NC(=O)[C@@H]1CSc2c(F)c(F)c(c(F)c2F)SC[C@H](NC(=O)[C@H](CO)NC(=O)[C@@H](N)[C@@H](C)O)C(=O)N[C@@H](C)C(=O)N[C@@H](CCC(=O)O)C(=O)N[C@@H](Cc2ccc(O)cc2)C(=O)N1)C(=O)N[C@@H](CC(C)C)C(=O)N[C@@H](CO)C(=O)N1CCC[C@H]1C(N)=O [Peptide 11] (H-TSCAEYCNLLSP-NH2; linker 3-7 via C6F4(1,4-diyl))",1590 ± 315 nM
12,CC(C)C[C@H](NC(=O)[C@H](CC(N)=O)NC(=O)[C@H](Cc1c[nH]c2ccccc12)NC(=O)[C@H](C)NC(=O)[C@H](CCC(=O)O)NC(=O)[C@H](C)NC(=O)[C@H](Cc1ccccc1)NC(=O)[C@H](CO)NC(=O)[C@@H](N)[C@@H](C)O)C(=O)N[C@@H](C)C(=O)N[C@@H](CO)C(=O)N1CCC[C@H]1C(N)=O [Peptide 6] (H-TSFAEAWNLASP-NH2),2140 ± 390 nM
13,CC(C)C[C@H](NC(=O)[C@H](CC(C)C)NC(=O)[C@H](CC(N)=O)NC(=O)[C@H](C)NC(=O)[C@H](Cc1ccc(O)cc1)NC(=O)[C@H](CCC(=O)O)NC(=O)[C@H](C)NC(=O)[C@H](Cc1ccccc1)NC(=O)[C@H](CO)NC(=O)[C@@H](N)[C@@H](C)O)C(=O)N[C@@H](C)C(=O)N1CCC[C@H]1C(N)=O [Peptide 7] (H-TSFAEYANLLAP-NH2),1220 ± 231 nM
14,CC(C)C[C@H](NC(=O)[C@H](CC(N)=O)NC(=O)[C@H](C)NC(=O)[C@H](Cc1ccc(O)cc1)NC(=O)[C@H](CCC(=O)O)NC(=O)[C@H](C)NC(=O)[C@H](C)NC(=O)[C@H](CO)NC(=O)[C@@H](N)[C@@H](C)O)C(=O)N[C@@H](CC(C)C)C(=O)N[C@@H](CO)C(=O)N1CCC[C@H]1C(N)=O [Peptide 3] (H-TSAAEYANLLSP-NH2),4910 ± 713 nM
15,"CC(C)C[C@H](NC(=O)[C@@H]1CSc2c(F)c(F)c(c(F)c2F)SC[C@H](NC(=O)[C@H](C)NC(=O)[C@H](Cc2ccccc2)NC(=O)[C@H](CO)NC(=O)[C@@H](N)[C@@H](C)O)C(=O)N[C@@H](Cc2ccc(O)cc2)C(=O)N[C@@H](Cc2c[nH]c3ccccc23)C(=O)N[C@@H](C)C(=O)N1)C(=O)N[C@@H](CO)C(=O)N[C@@H](C)C(N)=O [Peptide 37] (H-TSFACYWACLSA-NH2; linker 5-9 via C6F4(1,4-diyl))",1.6 ± 1.3 nM

# Molecular target: MDM2
# Experiment: not given
# Details: KD of single alanine mutant relative to PMI; ref 3 of supplement (Li et al., J. Mol. Biol. 2010); cited from earlier work
row,Molecule,KD ratio
1,TSFAEAWNLLSP [Peptide Y6A],191
2,TSFAEYWNLASP [Peptide L10A],227
3,TAFAEYWNLLSP [Peptide S2A],8.4
4,TSFAAYWNLLSP [Peptide E5A],6.7
5,TSFAEYANLLSP [Peptide W7A],50720
6,ASFAEYWNLLSP [Peptide T1A],1.9
7,TSFAEYWNLLAP [Peptide S11A],1.2
8,TSFAEYWNALSP [Peptide L9A],0.8
9,TSFAEYWNLLSA [Peptide P12A],0.7
10,TSAAEYWNLLSP [Peptide F3A],11750
